According to US8399683B2 (TetraLogic Pharmaceuticals, priority 2008, dated 2013):

Legend:
XIAP BIR-3 = molecular target: T1, XIAP BIR-3 (Homo sapiens, UniProt P98170); assay: Fluorescence polarization binding affinity to XIAP BIR-3 (competition with AbuRPF-K(5-Fam)-NH2); settings: 5 nM labeled peptide, 40 nM BIR3, 15 min at RT, pH 7.5; reported as ranges
T1 construct: 40 nM of the respective IAP BIR3
Procedure, shortened: (§1)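 Test peptides at varied concentrations competed with 5 nM fluorescent Smac-mimetic tracer for 40 nM BIR3 domain, 15 min at RT in 0.1M potassium phosphate pH 7.5 with […] bovine g-globulin. Polarization (mP) read at 485/520 nm; KD reported in bins (A=<0.1 μM, B=0.1–1 μM, C>1–10 μM, D=>10 μM).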

cIAP-1 BIR-3 = cIAP-1 BIR-3 (Homo sapiens, UniProt Q13490); assay: Fluorescence polarization binding affinity to cIAP-1 BIR-3 (competition with AbuRPF-K(5-Fam)-NH2); settings: 5 nM labeled peptide, 40 nM BIR3, 15 min at RT, pH 7.5; reported as ranges; read-out: KD (c-IAP-1 BIR3)
Procedure, shortened: as §1

SK-OV-3 cells = assay: Growth inhibition of ovarian cancer cell line SK-OV-3 (MTT assay, cell survival); type: cell-based; settings: Homo sapiens, drug concentration that results in 50% cell survival, 72 hrs incubation, reported as ranges
Procedure, shortened: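 After overnight seeding in McCoy's medium with 10% FBS, SK-OV-3 cells were exposed to compound at 0.003-10 μM for 72 hrs at 37° C. MTT was then added for 3 h, with DMSO solubilization and OD read at 535 nm. CC50 is the concentration giving 50% survival relative to untreated control, reported as ranges.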

T1 sequence (P98170 241-356 limits assumed): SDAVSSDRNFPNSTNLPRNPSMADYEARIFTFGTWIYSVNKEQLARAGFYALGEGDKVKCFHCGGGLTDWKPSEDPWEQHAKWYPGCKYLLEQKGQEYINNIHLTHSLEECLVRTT
Chain of cIAP-1 BIR-3 (Q13490 266-352 limits assumed): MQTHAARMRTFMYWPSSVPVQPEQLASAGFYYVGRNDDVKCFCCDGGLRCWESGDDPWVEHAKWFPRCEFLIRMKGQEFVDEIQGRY

Row | Kd (XIAP BIR-3) | Kd (cIAP-1 BIR-3) | Compound | CC50 (SK-OV-3 cells)
1 | < 100 nM | < 100 nM | CN[C@@H](C)C(=O)N[C@@H](COC)C(=O)N1CC[C@@H]2[C@H]1[C@@H](c1c[nH]c3ccc(F)cc13)CN2C(C)=O [Example 72, N-{2-[4-Acetyl-6-(5-fluoro-1H-indol-3-yl)-hexahydro-pyrrolo[3,2-b]pyrrol-1-yl]-1-methoxymethyl-2-oxo-ethyl}-2-methylamino-propionamide] | 1000 to 10000 nM
2 | 1000 to 10000 nM | 100 to 1000 nM | CN[C@@H](C)C(=O)N[C@@H](CO)C(=O)N1CC[C@@H]2[C@H]1[C@@H](c1c[nH]c3cc(F)ccc13)CN2Cc1ccccc1 [Example 103] | 1000 to 10000 nM
3 | < 100 nM | < 100 nM | CN[C@@H](C)C(=O)N[C@H](C(=O)N1CC[C@@H]2[C@H]1[C@@H](c1c[nH]c3ccc(F)cc13)CN2C(C)=O)[C@@H](C)O [Example 74, N-{1-[4-Acetyl-6-(5-fluoro-1H-indol-3-yl)-hexahydro-pyrrolo[3,2-b]pyrrole-1-carbonyl]-2-hydroxy-propyl}-2-methylamino-propionamide] | 100 to 1000 nM
4 | < 100 nM | < 100 nM | CN[C@@H](C)C(=O)N[C@H](C(=O)N1C[C@@H](O)[C@@H]2[C@H]1[C@@H](c1c[nH]c3cc(F)ccc13)CN2C(=O)OCc1ccccc1)C1CCCCC1 [Example 84, 4-[2-Cyclohexyl-2-(2-methylamino-propionylamino)-acetyl]-3S-(6-fluoro-1H-indol-3-yl)-6-hydroxy-hexahydro-pyrrolo[3,2-b]pyrrole-1-carboxylic acid benzyl ester] | < 100 nM
5 | > 10000 nM | 1000 to 10000 nM | CN[C@@H](C)C(=O)N[C@H](C(=O)N1CC[C@@H]2[C@H]1[C@H](c1c[nH]c3cc(F)ccc13)CN2S(C)(=O)=O)[C@@H](C)O [Example 55, N-{1-[6-(6-Fluoro-1H-indol-3-yl)-4-methanesulfonyl-hexahydro-pyrrolo[3,2-b]pyrrole-1-carbonyl]-2-hydroxy-propyl}-2-methylamino-propionamide] | > 10000 nM
6 | < 100 nM | < 100 nM | CN[C@@H](C)C(=O)N[C@H](C(=O)N1CC[C@@H]2[C@H]1[C@@H](c1c[nH]c3cc(F)ccc13)CN2C(=O)C(F)(F)F)C1CCCCC1 [Example 37, N-{1-Cyclohexyl-2-[6-(6-fluoro-1H-indol-3-yl)-4-(2,2,2-trifluoro-acetyl)-hexahydro-pyrrolo[3,2-b]pyrrol-1-yl]-2-oxo-ethyl}-2-methylamino-propionamide] | < 100 nM
7 | < 100 nM | < 100 nM | CN[C@@H](C)C(=O)N[C@H](C(=O)N1CC[C@@H]2[C@H]1[C@@H](c1c[nH]c3cc(F)ccc13)CN2Cc1ccccc1)C(C)(C)C [Example 104] | < 100 nM
8 | < 100 nM | < 100 nM | CN[C@@H](C)C(=O)N[C@H](C(=O)N1CC[C@@H]2[C@H]1[C@@H](c1c[nH]c3cc(F)ccc13)CN2S(C)(=O)=O)[C@@H](C)OC [Example 58, N-{1-[6-(6-Fluoro-1H-indol-3-yl)-4-methanesulfonyl-hexahydro-pyrrolo[3,2-b]pyrrole-1-carbonyl]-2-methoxy-propyl}-2-methylamino-propionamide] | < 100 nM
9 | 100 to 1000 nM | 100 to 1000 nM | CN[C@@H](C)C(=O)N[C@H](C(=O)N1CC[C@@H]2[C@H]1[C@H](c1c[nH]c3cc(F)ccc13)CN2S(C)(=O)=O)C(C)C [Example 47, N-{1-[6-(6-Fluoro-1H-indol-3-yl)-4-methanesulfonyl-hexahydro-pyrrolo[3,2-b]pyrrole-1-carbonyl]-2-methyl-propyl}-2-methylamino-propionamide] | > 10000 nM
10 | < 100 nM | < 100 nM | CN[C@@H](C)C(=O)N[C@H](C(=O)N1CC[C@H]2NC[C@H](c3c[nH]c4cc(F)ccc34)[C@H]21)[C@@H](C)OC [Example 35, N-{1-[6-(6-Fluoro-1H-indol-3-yl)-hexahydro-pyrrolo[3,2-b]pyrrole-1-carbonyl]-2-methoxy-propyl}-2-methylamino-propionamide] | < 100 nM
11 | 100 to 1000 nM | < 100 nM | CN[C@@H](C)C(=O)N[C@H](C(=O)N1CC[C@@H]2[C@H]1[C@@H](c1c[nH]c3cc(F)ccc13)CN2C1CCCC1)C(C)C [Example 8] | 100 to 1000 nM
12 | > 10000 nM | 100 to 1000 nM | CN[C@@H](C)C(=O)N[C@H](C(=O)N1CC[C@@H]2[C@H]1[C@H](c1c[nH]c3cc(F)ccc13)CN2C1CCCC1)[C@@H](C)O [Example 14, N-{1-[4-Cyclopentyl-6-(6-fluoro-1H-indol-3-yl)-hexahydro-pyrrolo[3,2-b]pyrrole-1-carbonyl]-2-hydroxy-propyl}-2-methylamino-propionamide] | > 10000 nM
13 | < 100 nM | < 100 nM | CN[C@@H](C)C(=O)N[C@H](C(=O)N1CC[C@@H]2[C@H]1[C@@H](c1c[nH]c3cc(F)ccc13)CN2Cc1ncc(C)s1)C1CCCCC1 [Example 23, N-{1-Cyclohexyl-2-[6-(6-fluoro-1H-indol-3-yl)-4-(5-methyl-thiazol-2-ylmethyl)-hexahydro-pyrrolo[3,2-b]pyrrol-1-yl]-2-oxo-ethyl}-2-methylamino-propionamide] | < 100 nM
14 | 1000 to 10000 nM | < 100 nM | CN[C@@H](C)C(=O)N[C@@H](COC)C(=O)N1CC[C@@H]2[C@H]1[C@H](c1c[nH]c3cc(F)ccc13)CN2C1CCCC1 [Example 12, N-{2-[4-Cyclopentyl-6-(6-fluoro-1H-indol-3-yl)-hexahydro-pyrrolo[3,2-b]pyrrol-1-yl]-1-methoxymethyl-2-oxo-ethyl}-2-methylamino-propionamide] | > 10000 nM
15 | < 100 nM | < 100 nM | CN[C@@H](C)C(=O)N[C@@H](COC)C(=O)N1CC[C@@H]2[C@H]1[C@@H](c1c[nH]c3cc(F)ccc13)CN2S(C)(=O)=O [Example 54] | 100 to 1000 nM
16 | < 100 nM | < 100 nM | CN[C@@H](C)C(=O)N[C@H](C(=O)N1CC[C@@H]2[C@H]1[C@@H](c1c[nH]c3ccc(F)cc13)CN2C(C)=O)[C@@H](C)OC [Example 71, N-{1-[4-Acetyl-6-(5-fluoro-1H-indol-3-yl)-hexahydro-pyrrolo[3,2-b]pyrrole-1-carbonyl]-2-methoxy-propyl}-2-methylamino-propionamide] | < 100 nM
17 | < 100 nM | < 100 nM | CN[C@@H](C)C(=O)N[C@H](C(=O)N1CC[C@@H]2[C@H]1[C@@H](c1c[nH]c3ccc(F)cc13)CN2C(C)=O)C(C)(C)C [Example 69, N-{1-[4-Acetyl-6-(5-fluoro-1H-indol-3-yl)-hexahydro-pyrrolo[3,2-b]pyrrole-1-carbonyl]-2,2-dimethyl-propyl}-2-methylamino-propionamide] | < 100 nM
18 | 1000 to 10000 nM | 100 to 1000 nM | CN[C@@H](C)C(=O)N[C@H](C(=O)N1CC[C@@H]2[C@H]1[C@@H](c1c[nH]c3ccccc13)CN2C1CCCCC1)[C@@H](C)OC [Example 97] | 100 to 1000 nM
